What all share (type): in vivo
The test system of experiment [1] is diamondback moth (Plutella xylostella). As to the kind of experiment: Insecticidal effect on diamondback moth (Test Example 1). Conditions: mortality judged according to the criterion shown in Test Example 1. Put shortly:
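Chinese cabbage seedlings carrying eggs laid by released adult moths were immersed in treatment, air-dried and held at 25° C. Hatched insects were counted six days after immersion, and mortality was calculated and scored against a fixed criterion. Three replicate groups of 10 insects were used.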

For experiment [2], the system named is rice leafroller (Cnaphalocrocis medinalis). As to the kind of experiment: Insecticidal effect on rice leafroller (Test Example 3). Conditions: 500 ppm, rice lamina dip, third-instar larvae, four days after inoculation, 25° C., humidity 70%. The method, boiled down:
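Groups of 10 third-instar larvae, in triplicate, are placed on air-dried lamina resting on wet filter paper. Incubation runs four days at 25° C with 70% humidity before survivors and dead are tallied.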

For experiment [3], the system named is common cutworm (Spodoptera Litura). As to the kind of experiment: Insecticidal effect on common cutworm (Test Example 2). As to conditions: 500 ppm, cabbage leaf dip, second-instar larvae, eight days after inoculation, 25° C. The method, boiled down:
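Mortality is the read-out: larvae are counted as dead or alive on day 8 and the percentage is graded by an effect criterion. Second-instar larvae are kept with the air-dried treated material in a sealed dish at 25° C, in triplicate groups of ten.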

`Cc1ccc(NC(=O)c2cccc([N+](=O)[O-])c2C(=O)NC(C)C)c(C)c1` [compound 648]: the “Insecticidal effect on diamondback moth (Test Example 1), judged grade” value (from here on “Insecticidal effect on diamondback moth”) in experiment [1] is “A (100)”. In addition, the “Insecticidal effect on rice leafroller (Test Example 3), judged grade” value (from here on “Insecticidal effect on rice leafroller”) in experiment [2] is on record as “A (100)”. Besides, the “Insecticidal effect on common cutworm (Test Example 2), judged grade” value (“Insecticidal effect on common cutworm” for short) in experiment [3] was “D (79-50)”.
As for `Cc1c(Cl)cccc1NC(=O)c1cccc([N+](=O)[O-])c1C(=O)NC(C)C` [compound 663], the “Insecticidal effect on diamondback moth” value in experiment [1] was “A (100)”. In experiment [2], the “Insecticidal effect on rice leafroller” value was “D (79-50)”. Moreover, the “Insecticidal effect on common cutworm” value in experiment [3] is “A (100)”.
As to `Cc1ccc(Cl)cc1NC(=O)c1cccc([N+](=O)[O-])c1C(=O)NC(C)C` [compound 665], in experiment [1], the “Insecticidal effect on diamondback moth” value was “A (100)”. For the same compound, the “Insecticidal effect on rice leafroller” value in experiment [2] is listed as “B (99-90)”. Moreover, in experiment [3], the “Insecticidal effect on common cutworm” value is recorded as “A (100)”.
As to `CCc1cc(Cl)ccc1NC(=O)c1cccc([N+](=O)[O-])c1C(=O)NC(C)C` [compound 667], the “Insecticidal effect on diamondback moth” value in experiment [1] is “A (100)”. In experiment [2], the “Insecticidal effect on rice leafroller” value was “A (100)”. Besides, the “Insecticidal effect on common cutworm” value in experiment [3] is reported as “A (100)”.
Turning to `Cc1c(Cl)ccc(NC(=O)c2cccc([N+](=O)[O-])c2C(=O)NC(C)C)c1C` [compound 669], in experiment [1], the “Insecticidal effect on diamondback moth” value is given as “A (100)”. For the same compound, the “Insecticidal effect on rice leafroller” value in experiment [2] is on record as “A (100)”. For the same compound, the “Insecticidal effect on common cutworm” value in experiment [3] is on record as “D (79-50)”.
For the compound `Cc1cc(I)ccc1NC(=O)c1cccc([N+](=O)[O-])c1C(=O)NC(C)C` [compound 673], in experiment [1], the “Insecticidal effect on diamondback moth” value was “A (100)”. Moreover, the “Insecticidal effect on rice leafroller” value in experiment [2] was “D (79-50)”. Further, in experiment [3], the “Insecticidal effect on common cutworm” value is on record as “D (79-50)”.
On to `Cc1c(F)cccc1NC(=O)c1cccc([N+](=O)[O-])c1C(=O)NC(C)C` [compound 674], for which, in experiment [1], the “Insecticidal effect on diamondback moth” value is recorded as “A (100)”. Also, the “Insecticidal effect on rice leafroller” value in experiment [2] is reported as “A (100)”. Moreover, the “Insecticidal effect on common cutworm” value in experiment [3] is reported as “D (79-50)”.
Regarding `Cc1cc(F)ccc1NC(=O)c1cccc([N+](=O)[O-])c1C(=O)NC(C)C` [compound 675], the “Insecticidal effect on diamondback moth” value in experiment [1] is listed as “A (100)”. Besides, the “Insecticidal effect on rice leafroller” value in experiment [2] is recorded as “A (100)”. The “Insecticidal effect on common cutworm” value in experiment [3] is reported as “A (100)”.
As to `Cc1ccc(F)cc1NC(=O)c1cccc([N+](=O)[O-])c1C(=O)NC(C)C` [compound 676], the “Insecticidal effect on diamondback moth” value in experiment [1] is recorded as “A (100)”. For the same compound, the “Insecticidal effect on rice leafroller” value in experiment [2] is “A (100)”. The “Insecticidal effect on common cutworm” value in experiment [3] was “C (89-80)”.
Turning to `Cc1c(NC(=O)c2cccc([N+](=O)[O-])c2C(=O)NC(C)C)cccc1C(F)(F)F` [compound 681], the “Insecticidal effect on diamondback moth” value in experiment [1] was “A (100)”. Besides, in experiment [2], the “Insecticidal effect on rice leafroller” value is recorded as “A (100)”. Besides, in experiment [3], the “Insecticidal effect on common cutworm” value was “A (100)”.
`Cc1cc(C(F)(F)C(F)(F)F)ccc1NC(=O)c1cccc([N+](=O)[O-])c1C(=O)NC(C)C` [compound 683]: in experiment [1], the “Insecticidal effect on diamondback moth” value was “A (100)”. For the same compound, in experiment [2], the “Insecticidal effect on rice leafroller” value is reported as “A (100)”. The “Insecticidal effect on common cutworm” value in experiment [3] is reported as “A (100)”.
Consider `Cc1cc(C(F)(F)C(F)(F)C(F)(F)F)ccc1NC(=O)c1cccc([N+](=O)[O-])c1C(=O)NC(C)C` [compound 684], for which the “Insecticidal effect on diamondback moth” value in experiment [1] is “A (100)”. For the same compound, the “Insecticidal effect on rice leafroller” value in experiment [2] is recorded as “A (100)”. The “Insecticidal effect on common cutworm” value in experiment [3] is given as “A (100)”.
Take `Cc1cc(C(F)(F)C(F)(F)C(F)(F)C(F)(F)F)ccc1NC(=O)c1cccc([N+](=O)[O-])c1C(=O)NC(C)C` [compound 686]: in experiment [1], the “Insecticidal effect on diamondback moth” value is reported as “A (100)”. In addition, the “Insecticidal effect on rice leafroller” value in experiment [2] is given as “A (100)”. In experiment [3], the “Insecticidal effect on common cutworm” value is on record as “A (100)”.
`COc1cccc(NC(=O)c2cccc([N+](=O)[O-])c2C(=O)NC(C)C)c1C` [compound 687]: in experiment [1], the “Insecticidal effect on diamondback moth” value is “A (100)”. Besides, the “Insecticidal effect on rice leafroller” value in experiment [2] was “D (79-50)”. The “Insecticidal effect on common cutworm” value in experiment [3] is reported as “D (79-50)”.
In the case of `COc1ccc(NC(=O)c2cccc([N+](=O)[O-])c2C(=O)NC(C)C)c(C)c1C` [compound 689], the “Insecticidal effect on diamondback moth” value in experiment [1] is “A (100)”. Further, the “Insecticidal effect on rice leafroller” value in experiment [2] is reported as “A (100)”. For the same compound, the “Insecticidal effect on common cutworm” value in experiment [3] was “D (79-50)”.
For the compound `COc1cc(NC(=O)c2cccc([N+](=O)[O-])c2C(=O)NC(C)C)cc(C(F)(F)F)c1` [compound 691], the “Insecticidal effect on diamondback moth” value in experiment [1] is reported as “A (100)”. Moreover, the “Insecticidal effect on rice leafroller” value in experiment [2] is reported as “C (89-80)”. Further, the “Insecticidal effect on common cutworm” value in experiment [3] is on record as “D (79-50)”.
For `Cc1c(NC(=O)c2cccc([N+](=O)[O-])c2C(=O)NC(C)C)cccc1OC(F)F` [compound 695], in that order: “A (100)”, “A (100)” and “A (100)”.
Regarding `Cc1cc(OC(F)F)ccc1NC(=O)c1cccc([N+](=O)[O-])c1C(=O)NC(C)C` [compound 696, N^1-(4-difluoromethoxy-2-methylphenyl)-N^2-isopropyl-3-nitrophthalic acid diamide], the “Insecticidal effect on diamondback moth” value in experiment [1] is given as “A (100)”. Moreover, the “Insecticidal effect on rice leafroller” value in experiment [2] is given as “A (100)”. In addition, the “Insecticidal effect on common cutworm” value in experiment [3] was “A (100)”.
Consider `Cc1cc(OC(F)(F)C(F)(F)Br)ccc1NC(=O)c1cccc([N+](=O)[O-])c1C(=O)NC(C)C` [compound 698], for which the “Insecticidal effect on diamondback moth” value in experiment [1] was “A (100)”. Moreover, the “Insecticidal effect on rice leafroller” value in experiment [2] was “A (100)”. For the same compound, in experiment [3], the “Insecticidal effect on common cutworm” value is listed as “B (99-90)”.
Take `Cc1cc(OCC(F)(F)C(F)F)ccc1NC(=O)c1cccc([N+](=O)[O-])c1C(=O)NC(C)C` [compound 699]: the “Insecticidal effect on diamondback moth” value in experiment [1] is listed as “A (100)”. Further, the “Insecticidal effect on rice leafroller” value in experiment [2] was “D (79-50)”. Moreover, the “Insecticidal effect on common cutworm” value in experiment [3] is listed as “A (100)”.
In the case of `Cc1cc(OC(F)(F)C(F)(Br)C(F)(F)F)ccc1NC(=O)c1cccc([N+](=O)[O-])c1C(=O)NC(C)C` (stereo not drawn) [compound 700], the “Insecticidal effect on diamondback moth” value in experiment [1] is listed as “A (100)”. The “Insecticidal effect on rice leafroller” value in experiment [2] is recorded as “A (100)”. Besides, in experiment [3], the “Insecticidal effect on common cutworm” value was “A (100)”.
In the case of `Cc1cc(OCC(F)OC(F)(F)F)ccc1NC(=O)c1cccc([N+](=O)[O-])c1C(=O)NC(C)C` (stereo not drawn) [compound 701], the “Insecticidal effect on diamondback moth” value in experiment [1] is “A (100)”. Also, the “Insecticidal effect on rice leafroller” value in experiment [2] is “A (100)”. Besides, in experiment [3], the “Insecticidal effect on common cutworm” value was “A (100)”.
Regarding `CC(C)NC(=O)c1c(C(=O)Nc2ccc(C(F)(C(F)(F)F)C(F)(F)F)cc2Cl)cccc1[N+](=O)[O-]` [compound 703], the “Insecticidal effect on diamondback moth” value in experiment [1] was “A (100)”. In experiment [2], the “Insecticidal effect on rice leafroller” value was “A (100)”. The “Insecticidal effect on common cutworm” value in experiment [3] is “A (100)”.
As to `CC(C)NC(=O)c1c(C(=O)Nc2ccc(OC(F)(F)F)cc2Br)cccc1[N+](=O)[O-]` [compound 705], the “Insecticidal effect on diamondback moth” value in experiment [1] is listed as “A (100)”. In addition, in experiment [2], the “Insecticidal effect on rice leafroller” value was “A (100)”. Also, the “Insecticidal effect on common cutworm” value in experiment [3] is recorded as “D (79-50)”.
Consider `Cc1cc(OC(F)(F)F)ccc1NC(=O)c1cccc([N+](=O)[O-])c1C(=O)NC(C)C` [compound 710], for which the “Insecticidal effect on diamondback moth” value in experiment [1] was “A (100)”. Moreover, the “Insecticidal effect on rice leafroller” value in experiment [2] is “A (100)”. Besides, the “Insecticidal effect on common cutworm” value in experiment [3] is reported as “C (89-80)”.
Turning to `Cc1cc(OC(F)(F)Br)ccc1NC(=O)c1cccc([N+](=O)[O-])c1C(=O)NC(C)C` [compound 711], the “Insecticidal effect on diamondback moth” value in experiment [1] is “A (100)”. In addition, in experiment [2], the “Insecticidal effect on rice leafroller” value is listed as “A (100)”. The “Insecticidal effect on common cutworm” value in experiment [3] is on record as “C (89-80)”.
In the case of `Cc1cc(OC(F)(F)C(F)F)ccc1NC(=O)c1cccc([N+](=O)[O-])c1C(=O)NC(C)C` [compound 712], in experiment [1], the “Insecticidal effect on diamondback moth” value is given as “A (100)”. In addition, in experiment [2], the “Insecticidal effect on rice leafroller” value is reported as “A (100)”. Moreover, in experiment [3], the “Insecticidal effect on common cutworm” value is “A (100)”.
Consider `Cc1c(NC(=O)c2cccc([N+](=O)[O-])c2C(=O)NC(C)C)cccc1OC(F)(F)C(F)Cl` (stereo not drawn) [compound 713], for which the “Insecticidal effect on diamondback moth” value in experiment [1] is reported as “A (100)”. The “Insecticidal effect on rice leafroller” value in experiment [2] was “D (79-50)”. In experiment [3], the “Insecticidal effect on common cutworm” value is recorded as “B (99-90)”.
In the same order, the values of `Cc1cc(OC(F)(F)C(F)Cl)ccc1NC(=O)c1cccc([N+](=O)[O-])c1C(=O)NC(C)C` (stereo not drawn) [compound 714] are “A (100)”, “A (100)” and “A (100)”.

Source of the values: patent US6362369B1, “Phthalic acid diamide derivatives fluorine-containing aniline compounds as starting material, agricultural and horticultural insecticides, and a method for application of the insecticides” (Nihon Nohyaku Co., Ltd., priority 1997, dated 2002).
